Measurements from patent publication US11919867B1, “5-(4,5-bis(4-bromophenyl)-2-(4-methoxyphenyl)-1H-imidazol-1-yl)pentanoic acid as an antimicrobial compound” (KING FAISAL UNIVERSITY, priority 2023, dated 2024).

Key:
Format in all cases: cell-based
Bacillus cereus = experiment: Agar plate disc-diffusion, antibacterial inhibition zone; details: nutrient agar, 37° C., 48 hours, DMSO control zone subtracted
Protocol: (§1) The agar plate disc-diffusion method was applied. […] The discs were then placed onto the surface of agar plates (nutrient agar for bacteria and Sabouraud's dextrose agar for fungi) seeded with the test organism. Each plate contained 15 mL of the agar medium, previously seeded with 0.2 mL of the broth culture of each organism pregrown for 18 hours. The plates were incubated at 37° C. for 48 hours, and 72 hours for fungi. The inhibition zones was measured in mm. Discs impregnated with DMSO were used as a control, and its inhibition zone was subtracted from the tested compound actual inhibition zone.

Escherichia coli = experiment: as above; details: nutrient agar, 37° C., 48 hours, DMSO control zone subtracted
Protocol: as §1

Pseudomonas aeruginosa = experiment: as above; details: nutrient agar, 37° C., 48 hours, DMSO control zone subtracted
Protocol: as §1

Staphylococcus aureus = experiment: as above; details: nutrient agar, 37° C., 48 hours, DMSO control zone subtracted
Protocol: as §1

Aspergillus flavus = experiment: Agar plate disc-diffusion, antifungal inhibition zone; details: Sabouraud's dextrose agar, 72 hours, DMSO control zone subtracted
Protocol: as §1

[1] = system: Chrysosporium keratinophilum; experiment: as above; details: Sabouraud's dextrose agar, 72 hours, DMSO control zone subtracted
Protocol: as §1

[2] = A = concentration of comp. = 10,000 μL
[3] = B = concentration of comp. = 30,000 μL
[4] = C = concentration of comp. = 50,000 μL

COc1ccc(-c2nc(-c3ccc(Br)cc3)c(-c3ccc(Br)cc3)n2CCCCC(=O)O)cc1 [V, 5-(4,5-bis(4-bromophenyl)-2-(4-methoxyphenyl)-1H-imidazol-1-yl)pentanoic acid]
inhibition zone, Bacillus Cereus, A (Bacillus cereus; [2]): 28 mm
inhibition zone, Bacillus Cereus, B (Bacillus cereus; [3]): 29 mm
inhibition zone, Bacillus Cereus, C (Bacillus cereus; [4]): 39 mm
inhibition zone, Escherichia coli, A (Escherichia coli; [2]): 30 mm
inhibition zone, Escherichia coli, B (Escherichia coli; [3]): 40 mm
inhibition zone, Escherichia coli, C (Escherichia coli; [4]): 55 mm
inhibition zone, Pseudomonas aeruginosa, A (Pseudomonas aeruginosa; [2]): 26 mm
inhibition zone, Pseudomonas aeruginosa, B (Pseudomonas aeruginosa; [3]): 29 mm
inhibition zone, Pseudomonas aeruginosa, C (Pseudomonas aeruginosa; [4]): 40 mm
inhibition zone, Staphylococcus aureus, A (Staphylococcus aureus; [2]): 15 mm
inhibition zone, Staphylococcus aureus, B (Staphylococcus aureus; [3]): 22 mm
inhibition zone, Staphylococcus aureus, C (Staphylococcus aureus; [4]): 31 mm
inhibition zone, Aspergillus flavus, A (Aspergillus flavus; [2]): 22 mm
inhibition zone, Aspergillus flavus, B (Aspergillus flavus; [3]): 25 mm
inhibition zone, Aspergillus flavus, C (Aspergillus flavus; [4]): 33 mm
inhibition zone, Chrysosporium keratinophilum, A [1, 2]: 26 mm
inhibition zone, Chrysosporium keratinophilum, B [1, 3]: 27 mm
inhibition zone, Chrysosporium keratinophilum, C [1, 4]: 45 mm
